Assay [1] is described as follows: Duration of action / clearance from central nervous system. To be noted: in words.
The subject of a further assay is release of aspartate. To be noted: in words, literature; cited from earlier work.
For another assay, the system named is release of glutamate. Particulars: in words, literature; cited from earlier work.

As to `CN1CCN(c2ncc(-c3cc(Cl)cc(Cl)c3Cl)c(N)n2)CC1.CS(=O)(=O)O` [Example 3, 4-Amino-2-(4-methylpiperazin-1-yl)-5-(2,3,5-trichlorophenyl) pyrimidine mesylate], the duration of action result in assay [1] is reported as “long acting”.

On to `CN1CCN(c2nc(N)c(-c3cc(Cl)cc(Cl)c3Cl)c(C(F)(F)F)n2)CC1` [Example 1, 4-Amino-2-(4-methylpiperazin-1-yl)-5-(2,3,5-trichlorophenyl)-6-trifluoromethylpyrimidine], for which the duration of action entry in assay [1] is on record as “long acting”.

Consider `Nc1nnc(-c2cccc(Cl)c2Cl)c(N)n1` [lamotrigine, 3,5-diamino-6-(2,3-dichlorophenyl)-1,2,4-triazine], for which, in the assay with release of aspartate, the “inhibition of aspartate release” value was “shown to inhibit the release”. Also, the “inhibition of glutamate release” value in the assay with release of glutamate is listed as “shown to inhibit the release”.

As for `Nc1nc(N)c(-c2cc(Cl)cc(Cl)c2Cl)c(C(F)(F)F)n1` [Example 4, 2,4-Diamino-5-(2,3,5-trichlorophenyl)-6-trifluoromethyl pyrimidine], the duration of action result in assay [1] is “long acting”.

`COCc1nc(N)nc(N)c1-c1cc(Cl)cc(Cl)c1Cl` [Example 2, 2,4-Diamino-5-(2,3,5-trichlorophenyl)-6-methoxymethyl pyrimidine]: the duration of action entry in assay [1] was “short acting”.
